Assay results taken from patent US20160139123A1, “Shear Wave Imaging Method and Installation for Collecting Information on a Soft Solid” (INSTITUT NATIONAL DE LA SANTE ET DE LA RECHERCHE MEDICALE …, priority 2013, published 2016).

Tested on: naive CD4 T cells
Assay: Differentiation induction of naive CD4 T cells (DP8α induction)
Format: cell-based, human
Settings: for effect on the frequency of DP8α cells: short chain fatty acid added to the induction culture
Procedure: Naive CD4 T cells are obtained from PBMC or PBL using the EasySep negative selection kit for naive CD4 T cells ([…] technologies).
Monocytes are isolated from PBMC using the CD14 microbeads positive selection kit of Miltenyi.
Immature dendritic cells (iDC) are prepared from monocytes (CD14+) cultured for 3 days with IL-4 (200 IU/ml) and GM-CSF (1000 IU/ml). Said cells are also called mo-iDC (monocyte-derived immature dendritic cells).
Immature DC are co-cultured for a night with thawed F. prausnitzii bacteria at 1:1 ratio in the presence or not of butyrate. The iDC are then added to naive CD4 cells for 5 days in the presence of IL-2.
Alternatively, butyrate is added later, at the same time as naive CD4 T cell.
DP8α induction is measured by a labeling with CD3-PE (phycoerythrin), CD4-FITC, CD8-APC (allophycocyanin) antibodies. The results are compared with those obtained with unstimulated CD4 T cells, CD4 T cells stimulated by iDC alone and CD4 T cells stimulated by iDC loaded with E. coli.

Compound: CCCC(=O)O [butyrate]
- fraction of naive CD4 T cells that acquire the DP8α phenotype (mean) (butyrate 0.145 mM added to iDC loaded with F. prausnitzii): 6%

Compound: CCC(=O)O [propionate]
- effect on the frequency of DP8α cells: no or few effect

Compound: CC(=O)O [acetate]
- effect on the frequency of DP8α cells: no or few effect
